Assay results: PubChem BioAssay (NCI)
≈ marks a conversion by molar mass, not a printed value.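 Cells were grown in 96-well plates and exposed to each compound for 48 hours at five concentrations; endpoints were interpolated linearly between bracketing concentrations, or set to the highest concentration if not reached. GI50 = concentration required for 50% inhibition of growth. TGI: concentration producing complete growth inhibition.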 Peptide text beside a SMILES is read from it.

Assays:
Experiment in all cases: DTP human tumour cell line panel, 48 h
[1] = test system: A549 NSCLC
[2] = test system: SK-MEL-28 melanoma
[3] = test system: HL-60(TB) leukemia
[4] = test system: SK-MEL-2 melanoma
[5] = test system: UACC-62 melanoma
[6] = test system: HCT-116 colon
[7] = test system: SK-OV-3 ovarian
[8] = test system: K-562 leukemia
[9] = test system: ACHN renal
[10] = test system: SR leukemia
[11] = test system: SN12C renal
[12] = test system: T-47D breast
[13] = test system: HT29 colon
[14] = test system: TK-10 renal
[15] = test system: SF-268 CNS
[16] = test system: M14 melanoma
[17] = test system: SK-MEL-5 melanoma
[18] = test system: HOP-92 NSCLC
[19] = test system: RPMI-8226 leukemia
[20] = test system: COLO 205 colon
[21] = test system: KM12 colon
[22] = test system: CAKI-1 renal
[23] = test system: MDA-MB-231 breast
[24] = test system: DU-145 prostate
[25] = test system: HCT-15 colon
[26] = test system: NCI-H460 lung
[27] = test system: NCI-H522 lung
[28] = test system: MDA-MB-435
[29] = test system: NCI-H23 lung
[30] = test system: NCI/ADR-RES ovarian
[31] = test system: OVCAR-3 ovarian
[32] = test system: IGROV1 ovarian
[33] = test system: SF-539 CNS
[34] = test system: EKVX NSCLC
[35] = test system: U251 CNS
[36] = test system: SF-295 CNS
[37] = test system: HS 578T breast
[38] = test system: SNB-75 CNS
[39] = test system: SW-620 colon
[40] = test system: OVCAR-4 ovarian
[41] = test system: OVCAR-5 ovarian
[42] = test system: OVCAR-8 ovarian
[43] = test system: SNB-19 CNS
[44] = test system: HCC-2998 colon
[45] = test system: UACC-257 melanoma
[46] = test system: RXF 393 renal
[47] = test system: MCF7 breast
[48] = test system: UO-31 renal
[49] = test system: CCRF-CEM leukemia
[50] = test system: MOLT-4 leukemia
[51] = test system: HOP-62 NSCLC
[52] = test system: PC-3 prostate
[53] = test system: A498 renal
[54] = test system: BT-549 breast
[55] = test system: NCI-H226 lung

SMILES: CCOC(=O)/C(=N/Nc1ccc(Cl)cc1)N1C(=S)C=C(C)NN(C)C1=S
- TGI [1]: > 100 µM
- TGI [2]: > 100 µM
- TGI [3]: > 100 µM
- TGI [4]: > 100 µM
- TGI [5]: 90.6 µM
- TGI [6]: > 100 µM
- TGI [7]: > 100 µM
- TGI [8]: > 100 µM
- TGI [9]: > 100 µM
- TGI [10]: > 100 µM
- TGI [11]: > 100 µM
- TGI [12]: 98.3 µM
- TGI [13]: > 100 µM
- TGI [14]: > 100 µM
- TGI [15]: 85 µM
- TGI [16]: > 100 µM
- TGI [17]: > 100 µM
- TGI [18]: > 100 µM
- TGI [19]: > 100 µM
- TGI [20]: > 100 µM
- TGI [21]: > 100 µM
- TGI [22]: > 100 µM
- TGI [23]: > 100 µM
- TGI [24]: > 100 µM
- TGI [25]: > 100 µM
- TGI [26]: > 100 µM
- TGI [27]: 50.2 µM
- TGI [28]: > 100 µM
- TGI [29]: > 100 µM
- TGI [30]: > 100 µM
- TGI [31]: > 100 µM
- TGI [32]: > 100 µM
- TGI [33]: > 100 µM
- TGI [34]: 73 µM
- TGI [35]: 39.5 µM
- TGI [36]: 42.3 µM
- TGI [37]: > 100 µM
- TGI [38]: 69.3 µM
- TGI [39]: > 100 µM
- TGI [40]: > 100 µM
- TGI [41]: > 100 µM
- TGI [42]: 73.1 µM
- TGI [43]: > 100 µM
- TGI [44]: > 100 µM
- TGI [45]: > 100 µM
- TGI [46]: 41.1 µM
- TGI [47]: > 100 µM
- TGI [48]: > 100 µM
- TGI [49]: > 100 µM
- TGI [50]: > 100 µM

SMILES: CC(=O)NC(C(=O)NC(C)C(=O)N1CCCC1C(=O)O)C(C)C (stereo not drawn) (Ac-Val-Ala-Pro-OH; configuration not given here)
- GI50 [4]: 83.8 µg/mL (≈ 256 µM)
- GI50 [11]: 46.6 µg/mL
- GI50 [37]: 65.6 µg/mL
- GI50 [49]: 89.9 µg/mL

SMILES: COc1cc2nc(N3CCC[C@@H](NC4=CC(=O)c5ccccc5C4=O)C3)nc(N)c2cc1OC
- GI50 [1]: 1.97 µM
- TGI [1]: 3.8 µM
- GI50 [2]: 1.72 µM
- TGI [2]: 3.39 µM
- GI50 [3]: 1.96 µM
- TGI [3]: 4.05 µM
- GI50 [5]: 2.01 µM
- TGI [5]: 4.25 µM
- GI50 [7]: 2.03 µM
- TGI [7]: 4.08 µM
- GI50 [8]: 0.427 µM
- TGI [8]: 2.36 µM
- GI50 [10]: 0.266 µM
- TGI [10]: 0.892 µM
- GI50 [11]: 1.73 µM
- TGI [11]: 3.44 µM
- GI50 [12]: 1.95 µM
- TGI [12]: 3.74 µM
- GI50 [13]: 1.88 µM
- TGI [13]: 3.82 µM
- GI50 [14]: 2.1 µM
- TGI [14]: 3.85 µM
- GI50 [15]: 1.92 µM
- TGI [15]: 3.81 µM
- GI50 [17]: 1.77 µM
- TGI [17]: 3.44 µM
- GI50 [19]: 2.33 µM
- TGI [19]: 5.58 µM
- GI50 [20]: 1.93 µM
- TGI [20]: 3.55 µM
- GI50 [51]: 2.16 µM
- TGI [51]: 4.26 µM
- GI50 [52]: 1.91 µM
- TGI [52]: 4.16 µM
- GI50 [53]: 18.5 µM
- TGI [53]: 40.9 µM
- GI50 [21]: 1.81 µM
- TGI [21]: 3.33 µM
- GI50 [22]: 2.02 µM
- TGI [22]: 4.12 µM
- GI50 [23]: 1.69 µM
- TGI [23]: 3.26 µM
- GI50 [24]: 2.03 µM
- TGI [24]: 3.78 µM
- GI50 [25]: 2.31 µM
- TGI [25]: 6.02 µM
- GI50 [26]: 2.1 µM
- TGI [26]: 4.36 µM
- GI50 [27]: 1.98 µM
- TGI [27]: 4.31 µM
- GI50 [28]: 2 µM
- TGI [28]: 4.14 µM
- GI50 [29]: 1.99 µM
- TGI [29]: 4.3 µM
- GI50 [31]: 2.03 µM
- TGI [31]: 3.81 µM
- GI50 [35]: 1.86 µM
- TGI [35]: 3.46 µM
- GI50 [37]: 2.14 µM
- TGI [37]: 4.95 µM
- GI50 [38]: 1.64 µM
- TGI [38]: 3.25 µM
- GI50 [39]: 1.59 µM
- TGI [39]: 3.36 µM
- GI50 [40]: 1.64 µM
- TGI [40]: 3.35 µM
- GI50 [54]: 2.1 µM
- TGI [54]: 4.66 µM
- GI50 [41]: 2.26 µM
- TGI [41]: 4.85 µM
- GI50 [55]: 21.9 µM
- TGI [55]: 52.7 µM
- GI50 [44]: 1.85 µM
- TGI [44]: 3.3 µM
- GI50 [45]: 16.6 µM
- TGI [45]: 38 µM
- GI50 [47]: 1.71 µM
- TGI [47]: 3.39 µM
- GI50 [48]: 1.62 µM
- TGI [48]: 3.25 µM
- GI50 [49]: 1.96 µM
- TGI [49]: 4.56 µM
- GI50 [50]: 2.34 µM
- TGI [50]: 5.55 µM
